Data set [1] deals with LTP at CA3-CA1 synapses in hippocampal slices. Put plainly: LTP of fEPSPs in acute hippocampal slices in the presence of the SERCA inhibitor thapsigargin. It counts as cell-based, mouse. The method, then: Acute transverse hippocampal slices (400 μm) were prepared according to known methods (Earls, et al. (2010) J. Neurosci. 30:15843-15855). Briefly, mouse brains were quickly removed and placed in cold (4° C.) dissecting artificial CSF (ACSF) containing 125 mM choline-Cl, 2.5 mM KCl, 0.4 mM CaCl2, 6 mM MgCl2, 1.25 mM NaH2PO4, 26 mM NaHCO3, and 20 mM glucose (285-295 mOsm), under 95% O2/5% CO2. After dissection, slices were incubated for 1 hour in ACSF containing 125 mM NaCl, 2.5 mM KCl, 2 mM CaCl2, 2 mM MgCl2, 1.25 mM NaH2PO4, 26 mM NaHCO3, and 10 mM glucose (285-295 mOsm), under 95% O2/5% CO2 at room temperature, and then transferred into submerged recording chambers and superfused (2-3 ml/min) with warm (30-32° C.) ACSF. Field recordings were performed using a setup with eight submerged recording chambers (Campden Instruments). Recordings in each chamber were performed independently. Field EPSPs (fEPSPs) from the CA1 stratum radiatum were recorded by using an extracellular glass pipette (3-5 MΩ) filled with ACSF. Schaffer collateral fibers in the stratum radiatum were stimulated with a bipolar tungsten electrode placed 200-300 μm away from the recording pipette. Stimulation intensities were chosen to produce an fEPSP with a 0.5 V/s slope. LTP was induced by three periods of 200 Hz tetanization delivered every 5 minutes. Each period of tetanization included 10 trains of 200 Hz stimulation delivered at the same intensity for 200 ms (40 stimulations) every 5 seconds. To test whether this increase in SERCA2 was necessary for enhanced LTP in Dgcr8^+/− mice, LTP was measured in the presence of the SERCA inhibitor thapsigargin (4 μM). […] In the absence of thapsigargin, the fEPSP slope increased measured six hours after induction was approximately 120% stronger than in the presence of thapsigargin in slices from Dgcr8^+/− mice (8 mice: 21 slices vehicle, 21 slices thapsigargin; p=0.014).

In the next data set the test system is SERCA2. Put plainly: Quantitative western blot of SERCA2 in hippocampus after AAV-miRNA injection into CA3. It counts as in vivo, mouse. As to conditions: wild-type mice; injection into CA3 at 10 weeks, hippocampi harvested at 16 weeks; versus GFP-only vector. The method, then:
Western blots were performed according to known methods (Earls, et al. (2010) supra). For human brain tissue, dissected samples arrived from brain banks frozen on dry ice. Mouse tissue was dissected at 4° C. and prepared either as whole-tissue lysates or as crude P2 synaptosomal fractions. Synaptosomes were prepared using established methods (Gray & Whittaker (1962) J. Anat. 96:79-88). In brief, tissue was homogenized in 10 mM HEPES (pH 7.4)/0.32 M sucrose using a motorized glass-TEFLON homogenizer. To separate the P2 synaptosomal fraction, the homogenate was spun for 5 minutes at 800×g; the supernatant from three successive spins was then centrifuged for 20 minutes at 12,000×g. Tissue or synaptosomal pellets were lysed by freezing and thawing, subsequent syringe passage in ice-cold radioimmunoprecipitation assay buffer (50 mM Tris-HCl (pH 7.4), 1% NP-40, 0.25% sodium deoxycholate, 150 mM NaCl, 1 mM EDTA, and protease inhibitor cocktail tablets (Roche), and finally brief sonication. Concentrations of protein lysates were determined by the BCA assay (Thermo Scientific). A 25 μg sample of each protein extract was electrophoresed on a 10% SDS-PAGE gel, and protein was transferred onto polyvinylidene difluoride membranes (Invitrogen). The primary antibodies used were goat anti-SERCA2 (1:250, sc-8095; Santa Cruz Biotechnology) and mouse anti-β-actin (1:10000, A5316; Sigma-Aldrich). […]
(In general: A western blot detects proteins with antibodies after separation by electrophoresis.)

Data set [2] concerns LTP in Dgcr8+/− hippocampus. As to the kind of experiment: Rescue of LTP increase in Dgcr8+/− mice by presynaptic restoration of miRNA (AAV into CA3). It counts as in vivo, mouse. As to conditions: presynaptic (CA3) AAV expression; injected at 10 weeks, LTP measured at 16 weeks. The method, then: Acute transverse hippocampal slices (400 μm) were prepared according to known methods (Earls, et al. (2010) J. Neurosci. 30:15843-15855). Briefly, mouse brains were quickly removed and placed in cold (4° C.) dissecting artificial CSF (ACSF) containing 125 mM choline-Cl, 2.5 mM KCl, 0.4 mM CaCl2, 6 mM MgCl2, 1.25 mM NaH2PO4, 26 mM NaHCO3, and 20 mM glucose (285-295 mOsm), under 95% O2/5% CO2. After dissection, slices were incubated for 1 hour in ACSF containing 125 mM NaCl, 2.5 mM KCl, 2 mM CaCl2, 2 mM MgCl2, 1.25 mM NaH2PO4, 26 mM NaHCO3, and 10 mM glucose (285-295 mOsm), under 95% O2/5% CO2 at room temperature, and then transferred into submerged recording chambers and superfused (2-3 ml/min) with warm (30-32° C.) ACSF. Field recordings were performed using a setup with eight submerged recording chambers (Campden Instruments). Recordings in each chamber were performed independently. Field EPSPs (fEPSPs) from the CA1 stratum radiatum were recorded by using an extracellular glass pipette (3-5 MΩ) filled with ACSF. Schaffer collateral fibers in the stratum radiatum were stimulated with a bipolar tungsten electrode placed 200-300 μm away from the recording pipette. Stimulation intensities were chosen to produce an fEPSP with a 0.5 V/s slope. LTP was induced by three periods of 200 Hz tetanization delivered every 5 minutes. Each period of tetanization included 10 trains of 200 Hz stimulation delivered at the same intensity for 200 ms (40 stimulations) every 5 seconds.
In Vivo Viral Injections. Adeno-associated viruses (AAVs) were prepared by cloning chimeric hairpins of them iRNAs of interest with hsa-miR-30a into the pAAV-6P-SEWB vector (Christensen, et al. (2010) Front. Neural Circuits 3:16). […]

With `C/C=C(/C)C(=O)O[C@H]1C(C)=C2[C@H]([C@@H]1OC(=O)CCCCCCC)[C@@](C)(OC(C)=O)C[C@H](OC(=O)CCC)[C@@]1(O)[C@H]2OC(=O)[C@@]1(C)O` [thapsigargin], the “fEPSP slope increase in the absence versus the presence of thapsigargin” value in data set [1] (six hours after induction, 4 μM, slices from Dgcr8+/− mice, p=0.014) was “approximately 120%”. Moreover, the “LTP increase in Dgcr8+/− slices” value in data set [1] (thapsigargin 4 μM, slices from mature Dgcr8+/− mice) is “rescued the LTP increase”. Besides, the “LTP in slices from wild-type littermates” value in data set [1] (thapsigargin 4 μM, wild-type slices, p=0.974) was “did not affect LTP”.

As for “miR-25: microRNA; human mature sequence CAUUGCACUUGUCUCGGUCUGA (SEQ ID NO:2) (CAUUGCACUUGUCUCGGUCUGA; expressed or natural sequence; listed as Homo sapiens)”, the “SERCA2 levels (quantitative western blot)” value with SERCA2 was “decreased”. In addition, the “rescue of increased LTP in Dgcr8+/− hippocampus” value (“rescue of increased LTP” below) in data set [2] is listed as “sufficient to rescue the increased LTP”.

On to “miR-98: microRNA; human mature sequence UGAGGUAGUAAGUUGUAUUGUU (SEQ ID NO:4) (UGAGGUAGUAAGUUGUAUUGUU; expressed or natural sequence; listed as Homo sapiens)”, for which the “rescue of increased LTP” value in data set [2] is given as “sufficient to rescue aberrant LTP”.

Take “miR-185: microRNA; human mature sequence UGGAGAGAAAGGCAGUUCCUGA (SEQ ID NO:6) (UGGAGAGAAAGGCAGUUCCUGA; expressed or natural sequence; listed as Homo sapiens)”: in the data set with SERCA2, the “SERCA2 levels (quantitative western blot)” value was “decreased”. In addition, in data set [2], the “rescue of increased LTP” value was “sufficient to rescue the increased LTP”.

(Values after patent US9255268B2, “Methods for diagnosing and treating learning or mental disorders” (St. Jude Children's Research Hospital, priority 2012, dated 2016).)
